{"source": "patent US9522151B2", "about": "“Dosing regimen for Janus Kinase (JAK) inhibitors” (priority 2012, dated 2016)", "key": {"in vitro": {"test": "in vitro", "conditions": "human, Caco-2", "source_text": "The in vitro permeability of Compound 1 was experimentally determined in a Caco-2 cell monolayer study. […] The dog gastric pH has been reported to range from 1.08 to 2.0 (Sagawa, Li et al. 2009; Mahar, Portelli et al. 2012)."}, "[1]": {"conditions": "dog, in vivo"}, "physchem": {"test": "physchem", "conditions": "pH 3.8"}, "laboratory dogs": {"system": "laboratory dogs", "test": "High dose BID safety study in 6 month old laboratory dogs", "type": "in vivo, dog", "method": "A high dose (3 mg/kg BID) was given to 6 month old laboratory dogs."}, "[2]": {"system": "client-owned dogs with chronic non-seasonal atopic dermatitis", "type": "in vivo", "conditions": "0.4-0.6 mg/kg BID oral", "source_text": "(§1) Minimum CADESI scores were assigned by a dermatologist or veterinarian (CADESI-01 score of 25 or CADESI-3 score of 60). Dogs were either 1 year of age or 6 months of age or older and weighed a minimum of 3 kg and were physically healthy apart from their atopic disease. The dogs had at least a 1 year or 6 month documented history of chronic non-seasonal atopic dermatitis. The dogs were flea free and appropriate preventatives and treatments were used throughout the study.\nIn these studies, animals were administered from 0.4-0.6 mg/kg body weight of a JAK inhibitor BID for up to 112 days."}, "[3]": {"system": "dogs with moderate to severe itching (pruritus)", "test": "Pruritus Study B (prednisolone controlled)", "type": "in vivo, dog", "conditions": "day 14; oral BID for 14 days (prednisolone 0.25-0.5 mg/kg, compound 1 0.4-0.6 mg/kg); time zero about 75 mm", "source_text": "(§2) Investigators attributed pruritus to one or more of the following: allergic dermatitis, atopic dermatitis, food allergy, contact allergy, flea allergy, sarcoptic mange. Dogs were six months of age or older, weighed a minimum of 3 kg and were physically healthy apart from their pruritic condition. Dogs were flea-free, and appropriate preventatives and treatments were used throughout the studies. The studies were designed as follows in Table 2 and Table 3."}, "[4]": {"system": "cytokine receptors that share the gp130 subunit (e.g. IL-6) as well as IL-13", "test": "Inhibition of gp130 subunit cytokine receptors and IL-13", "type": "cell-based"}, "[5]": {"system": "JAK-1 dependent cytokines (e.g. IL-2, IL-4, IL-6, IL-13, and IL-31)", "test": "Inhibition of JAK-1 dependent cytokines", "type": "cell-based"}, "[6]": {"conditions": "pH 5.5"}, "[7]": {"system": "the IL-10 family, the IL-12 family (that share the p40 subunit), or the IL-3 family", "test": "Inhibition of IL-10, IL-12 and IL-3 family cytokines", "type": "cell-based"}, "IL-12 and IL-23": {"system": "IL-12 and IL-23", "test": "Inhibition of cytokines that utilize JAK2/TYK2 and not JAK1", "type": "cell-based"}, "[8]": {"system": "client owned dogs with a history of chronic atopic dermatitis", "test": "Study in client owned dogs with chronic atopic dermatitis (Table 1)", "type": "in vivo, dog", "conditions": "0.19-0.39 mg/kg BID oral for 28 days; Day 1, 14 and 28", "method": "A study was conducted in client owned dogs. Fifty-six dogs, greater than 1 year of age, weighing 2-50 kg, with a history of chronic atopic dermatitis were enrolled at three veterinary schools. The study design is illustrated in the following Table 1: […]"}, "[9]": {"system": "cytokines that are exclusively dependent on JAK2 function (EPO, GM-CSF)", "test": "Inhibition of cytokines exclusively dependent on JAK2", "type": "cell-based", "conditions": "ratio of IC50's"}, "laboratory-bred dogs": {"system": "laboratory-bred dogs", "method": "A target animal safety program (8 studies) was conducted. 131 laboratory-bred dogs were exposed to N-methyl-1-{trans-4-[methyl(7H-pyrrolo[2,3-d]pyrimidin-4-yl)amino]cyclohexyl}methanesulfonamide maleate (i.e. N-methyl-1-{trans-4-[methyl(7H-pyrrolo[2,3-d]pyrimidin-4-yl)amino]cyclohexyl}methanesulfonamide maleic acid salt maleic acid salt). Doses ranged from 0.5 mg/kg/day (0.25 mg/kg BID) to 18 mg/kg/day (9 mg/kg BID). Duration of exposure ranged from 10 days to 6 months. Recovery periods were incorporated into two studies. A series of early studies were designed to ensure the safety of client-owned dogs in the field safety and efficacy studies.\nIn a “margin of safety” study, the following treatments were given: […]"}, "[10]": {"system": "dogs with chronic non-seasonal atopic dermatitis", "test": "Atopic Dermatitis Dose Selection Study", "type": "in vivo, dog", "conditions": "oral", "source_text": "as §1"}, "[11]": {"system": "dogs with moderate to severe itching (pruritus)", "test": "Pruritus Study A (placebo controlled)", "type": "in vivo, dog", "source_text": "as §2"}, "[12]": {"test": "Other pharmacokinetic studies in dogs (IV and PO)", "conditions": "for bioavailability: po"}, "[13]": {"conditions": "dog, in vivo", "method": "All doses are expressed in terms of mg/kg of free base. Serial blood samples for determination of pharmacokinetics were collected following Compound 1 administration. Blood samples at 0, 1, 4, 8, and 12 hours post dose were collected via jugular venipuncture into K2EDTA tubes and placed on ice until centrifuged. Harvested plasma was stored at approximately −20° C. until analysis.\nThirty-two beagle dogs (16 female, 16 male) were allocated to four treatment groups. Dogs in Treatment 1 received placebo capsule (0 mg/kg) orally. […] All dogs received a twice daily doses 0, 0.6, 1.8, and 3.0 mg/kg for weeks 1 through 6 and a single daily doses of 0, 0.6, 1.8, and 3.0 mg/kg for weeks 7 through 26. On pharmacokinetic sample collection days, dogs were fasted the previous night and fed four hours post dose administration. To calculate AUC0-24 for study days 53 and 168, steady-state was assumed and the 24 hour concentration was assumed to be equal to the 0 hour concentration, and used for the 0 hour concentration. As the actual doses of Compound 1 varied from the group target doses, the pharmacokinetic variables AUC0-τ, (AUC of the dosing interval), Cmax, and Cτ (trough concentration) were all normalized to the group target dose.", "remark": "listed apart in the source"}, "[14]": {"system": "cytokine receptors that share the common gamma chain (e.g. IL-2R, IL-4R)", "test": "Inhibition of cytokine function, common gamma chain receptors", "type": "cell-based", "conditions": "read-out: IC50's of representative family members"}}, "note": "Values joined by “and” are separate entries in the source; they are usually repeats but may differ in a detail not shown here. Equal values may be shown once. Read-outs that look alike come from different tables or passages of the source."}
{"smiles": "CNS(=O)(=O)C[C@H]1CC[C@H](N(C)c2ncnc3[nH]ccc23)CC1.O=C(O)/C=C\\C(=O)O", "note": "[Compound 1, N-methyl-1-{trans-4-[methyl(7H-pyrrolo[2,3-d]pyrimidin-4-yl)amino]cyclohexyl}methanesulfonamide maleate]", "values": [{"measurement": "Papp", "setting": "in vitro", "value": 40.4, "unit": "×10⁻⁶ cm/s"}, {"measurement": "impact of breed on pharmacokinetic profile", "setting": "[1]", "value": "breed does not impact the pharmacokinetic profile"}, {"measurement": "solubility", "setting": "physchem", "value": 10.4, "unit": "mg/mL"}, {"measurement": "effects observed", "setting": "laboratory dogs; 0.6 mg/kg BID group", "value": "few effects"}, {"measurement": "dogs with clinical signs of integument (demodex)", "setting": "laboratory dogs; 3 mg/kg BID, 6 month old laboratory dogs", "value": "7/8"}, {"measurement": "efficacy for the control of atopic dermatitis including pruritus", "setting": "[2]", "value": "excellent efficacy"}, {"measurement": "LS mean owner VAS score", "setting": "[3]", "value": "about 18 mm"}, {"measurement": "inhibition of cytokine receptor function", "setting": "[4]", "value": "inhibits the function"}, {"measurement": "IC50", "setting": "[5]", "value": "< 249 nM and < 0.084 µg/mL"}, {"measurement": "solubility", "setting": "[6]", "value": "practically insoluble"}, {"measurement": "inhibition of cytokines", "setting": "[7]", "value": "it does not appear that compound 1 inhibits"}, {"measurement": "IC50", "setting": "IL-12 and IL-23", "value": "> 3000", "unit": "nM"}, {"measurement": "reduction in owner assessed VAS pruritus scores compared with placebo", "setting": "[8]", "value": "significantly (p≦0.07) different"}, {"measurement": "fold less potent than the JAK1-dependent cytokines (IL-2, 4, 6, 13, and 31)", "setting": "[9]", "value": "4-17 fold"}, {"measurement": "significant decreases in red blood cell parameters outside normal laboratory reference ranges", "setting": "laboratory-bred dogs; 0.6 mg/kg dose", "value": "not detected"}, {"measurement": "deaths or other serious adverse events", "setting": "laboratory-bred dogs; 0.6, 1.8 or 3.0 mg/kg oral, BID weeks 1-6 then SID weeks 7-26", "value": "no observed deaths or other serious adverse events"}, {"measurement": "Investigator CADESI score over 112 days, order of treatment groups from highest to lowest", "setting": "[10]", "value": "T01 (placebo), T04 (0.2-0.3 mg/kg SID compound 1), T03 (0.4-0.6 mg/kg SID compound 1), and T02 (0.4-0.6 mg/kg BID for 14 days followed by 0.4-0.6 mg/kg SID thereafter)"}, {"measurement": "owner VAS scores by day compared to placebo (T01)", "setting": "[11]; 0.4-0.6 mg/kg BID oral for 7 days", "value": "lower each day starting on day 1"}, {"measurement": "LS mean owner VAS score", "setting": "[11]; day 7, 0.4-0.6 mg/kg BID oral, time zero about 75 mm, placebo about 55 mm", "value": "about 25 mm"}, {"measurement": "calculated fraction absorbed", "setting": "[12]; based on bioavailability 85%, clearance 4 mL/min/kg, blood flow 40 mL/min/kg", "value": "greater than 0.9"}, {"measurement": "half-life", "setting": "[12]; dog, plasma", "value": 4, "unit": "h"}, {"measurement": "clearance", "setting": "[12]; dog, plasma, intravenous", "value": 4, "unit": "mL/min/kg"}, {"measurement": "bioavailability", "setting": "[12]; dog, plasma, absolute oral bioavailability, mean range, dogs", "value": "79 to 89", "unit": "%"}, {"measurement": "bioavailability", "setting": "[12]; dog, plasma, bioavailability, value used to calculate fraction absorbed", "value": 85, "unit": "%"}, {"measurement": "volume of distribution", "setting": "[12]; dogs", "value": "moderate volume of distribution"}, {"measurement": "time of mean maximum plasma concentrations post dose", "setting": "[12]; oral administration, dogs", "value": "approximately 1 hour"}, {"measurement": "increase in mean AUC0-12 from Day 0 to Day 21", "setting": "[13]; both, beagle, po", "value": 40, "unit": "%"}, {"measurement": "male/female differences in pharmacokinetic parameters", "setting": "[13]", "value": "there did not appear to be any systematic male/female differences"}, {"measurement": "increase in AUC0-12 and Cmax with dose", "setting": "[13]; po, 3 mg/kg", "value": "dose proportional from 0.6 to 3.0 mg/kg"}, {"measurement": "IC50", "setting": "[14]", "value": "63 nM to 249 nM and 0.021 µg/mL to 0.084 µg/mL"}]}
{"smiles": "C[C@]12C=CC(=O)C=C1CC[C@@H]1[C@@H]2[C@@H](O)C[C@@]2(C)[C@H]1CC[C@]2(O)C(=O)CO", "note": "[prednisolone, Prednisolone, reference compound]", "values": [{"measurement": "LS mean owner VAS score", "setting": "[3]", "value": "about 10 mm"}]}
